Where “and” joins values, the source holds several entries; their conditions need not be identical. Equal values may be shown once. Read-outs that look alike come from different tables or passages of the source.
Tests used:
Assay type in all cases: cell-based
kinases in BCWM.1 cells [1] = biological target: kinases in BCWM.1 cells (Homo sapiens, UniProt P80192); details: MLK1; Lys2; 1 μM; GF
Protocol: (§1) The cells were harvested and lysed. […] Bound kinases were identified and quantitated by ACTIVX as described in Patricelli et al., Biochemistry, 2007, 46(2): 350-358. The compounds were tested in duplicates against duplicate or quadruplicate control samples.

kinases in BCWM.1 cells [2] = biological target: kinases in BCWM.1 cells (Homo sapiens, UniProt Q9Y6E0); details: MST3; Lys2; 1 μM; GF
Protocol: as §1

kinases in BCWM.1 cells [3] = biological target: kinases in BCWM.1 cells (Homo sapiens, UniProt Q9Y2K2); details: QSK; Lys2; 1 μM, 90 min; GF
Protocol: as §1

kinases in BCWM.1 cells [4] = biological target: kinases in BCWM.1 cells (Homo sapiens, UniProt P07332); details: FES; Lys1; 1 μM; GF
Protocol: as §1

kinases in BCWM.1 cells [5] = biological target: kinases in BCWM.1 cells (Homo sapiens, UniProt O75676); details: MSK2 domain1; Lys2; 1 μM; GF
Protocol: as §1

kinases in BCWM.1 cells [6] = biological target: kinases in BCWM.1 cells (Homo sapiens, UniProt Q86XP1); details: DGKH; ATP; 1 μM; GF
Protocol: as §1

kinases in BCWM.1 cells [7] = biological target: kinases in BCWM.1 cells (Homo sapiens, UniProt O94806); details: PKD3; Lys1; 1 μM, 90 min; GF
Protocol: as §1

kinases in BCWM.1 cells [8] = biological target: kinases in BCWM.1 cells (Homo sapiens, UniProt P51617); details: IRAK1; Lys2; 1 μM; GF
Protocol: as §1

kinases in BCWM.1 cells [9] = biological target: kinases in BCWM.1 cells (Homo sapiens, UniProt Q96GD4); details: AurB; Lys1; 1 μM; GF
Protocol: as §1

kinases in BCWM.1 cells [10] = biological target: kinases in BCWM.1 cells (Homo sapiens, UniProt Q9Y6R4); details: MAP3K4; Lys2; 1 μM; GF
Protocol: as §1

kinases in BCWM.1 cells [11] = biological target: kinases in BCWM.1 cells (Homo sapiens, UniProt O95835); details: LATS1; Lys1; 1 μM; GF
Protocol: as §1

kinases in BCWM.1 cells [12] = biological target: kinases in BCWM.1 cells (Homo sapiens, UniProt P49840); details: GSK3A; Lys2; 1 μM; GF
Protocol: as §1

kinases in BCWM.1 cells [13] = biological target: kinases in BCWM.1 cells (Homo sapiens, UniProt P41743); details: PKCi; Lys1; 1 μM, 90 min; GF
Protocol: as §1

kinases in BCWM.1 cells [14] = biological target: kinases in BCWM.1 cells (Homo sapiens, UniProt Q14004)
Protocol: as §1

kinases in BCWM.1 cells [15] = biological target: kinases in BCWM.1 cells (Homo sapiens, UniProt O14920); details: IKKb; Lys2; 1 μM; GF
Protocol: as §1

kinases in BCWM.1 cells [16] = biological target: kinases in BCWM.1 cells (Homo sapiens, UniProt Q9C0K7); details: STLK6; Lys1; 1 μM, 90 min; GF
Protocol: as §1

kinases in BCWM.1 cells [17] = biological target: kinases in BCWM.1 cells (Homo sapiens, UniProt P23458); details: 1 μM, GF
Protocol: as §1

kinases in BCWM.1 cells [18] = biological target: kinases in BCWM.1 cells (Homo sapiens, UniProt P28482); details: Erk2; Lys2; 1 μM; GF
Protocol: as §1

kinases in BCWM.1 cells [19] = biological target: kinases in BCWM.1 cells (Homo sapiens, UniProt P27448); details: MARK3; Lys1; 1 μM; GF
Protocol: as §1

kinases in BCWM.1 cells [20] = biological target: kinases in BCWM.1 cells (Homo sapiens, UniProt Q16659); details: Erk3; Lys2; 1 μM; GF
Protocol: as §1

kinases in BCWM.1 cells [21] = biological target: kinases in BCWM.1 cells (Homo sapiens, UniProt Q13535); details: ATR; ATP; 1 μM; GF
Protocol: as §1

kinases in BCWM.1 cells [22] = biological target: kinases in BCWM.1 cells (Homo sapiens, UniProt P29323); details: EphB2; Activation Loop; 1 μM; GF
Protocol: as §1

kinases in BCWM.1 cells [23] = biological target: kinases in BCWM.1 cells (Homo sapiens, UniProt Q96GX5); details: MASTL, 1 μM, GF
Protocol: as §1

kinases in BCWM.1 cells [24] = biological target: kinases in BCWM.1 cells (Homo sapiens, UniProt O14976); details: GAK; Lys2; 1 μM; GF
Protocol: as §1

kinases in BCWM.1 cells [25] = biological target: kinases in BCWM.1 cells (Homo sapiens, UniProt P23743); details: DGKA; ATP; 1 μM; GF
Protocol: as §1

kinases in BCWM.1 cells [26] = biological target: kinases in BCWM.1 cells (Homo sapiens, UniProt Q8IU85); details: CaMKld; Lys1; 1 μM; GF
Protocol: as §1

kinases in BCWM.1 cells [27] = biological target: kinases in BCWM.1 cells (Homo sapiens, UniProt Q00535); details: CDK5; Lys2; 1 μM; GF
Protocol: as §1

kinases in BCWM.1 cells [28] = biological target: kinases in BCWM.1 cells (Homo sapiens, UniProt Q9NRM7); details: LATS2; Lys2; 1 μM; GF
Protocol: as §1

kinases in BCWM.1 cells [29] = biological target: kinases in BCWM.1 cells (Homo sapiens, UniProt Q02156); details: PKCe; Lys2; 1 μM, 90 min; GF
Protocol: as §1

kinases in BCWM.1 cells [30] = biological target: kinases in BCWM.1 cells (Homo sapiens, UniProt Q13418); details: ILK, 1 μM, GF
Protocol: as §1

Chain of kinases in BCWM.1 cells (Homo sapiens, UniProt P49840) (P49840 2-483 limits assumed): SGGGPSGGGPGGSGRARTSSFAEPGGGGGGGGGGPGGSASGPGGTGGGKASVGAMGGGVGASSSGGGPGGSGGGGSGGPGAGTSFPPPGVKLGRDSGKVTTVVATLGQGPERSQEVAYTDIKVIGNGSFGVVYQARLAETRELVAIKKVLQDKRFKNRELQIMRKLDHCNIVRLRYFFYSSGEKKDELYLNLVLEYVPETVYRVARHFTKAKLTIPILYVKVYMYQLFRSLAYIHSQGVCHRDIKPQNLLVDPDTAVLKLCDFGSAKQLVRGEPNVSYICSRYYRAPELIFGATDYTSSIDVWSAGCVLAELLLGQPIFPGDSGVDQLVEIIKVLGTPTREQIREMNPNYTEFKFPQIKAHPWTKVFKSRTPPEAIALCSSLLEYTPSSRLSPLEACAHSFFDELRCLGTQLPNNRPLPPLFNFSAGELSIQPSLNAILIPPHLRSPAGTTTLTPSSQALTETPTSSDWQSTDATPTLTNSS
Chain of kinases in BCWM.1 cells (Homo sapiens, UniProt P29323) (P29323 19-1055 limits assumed): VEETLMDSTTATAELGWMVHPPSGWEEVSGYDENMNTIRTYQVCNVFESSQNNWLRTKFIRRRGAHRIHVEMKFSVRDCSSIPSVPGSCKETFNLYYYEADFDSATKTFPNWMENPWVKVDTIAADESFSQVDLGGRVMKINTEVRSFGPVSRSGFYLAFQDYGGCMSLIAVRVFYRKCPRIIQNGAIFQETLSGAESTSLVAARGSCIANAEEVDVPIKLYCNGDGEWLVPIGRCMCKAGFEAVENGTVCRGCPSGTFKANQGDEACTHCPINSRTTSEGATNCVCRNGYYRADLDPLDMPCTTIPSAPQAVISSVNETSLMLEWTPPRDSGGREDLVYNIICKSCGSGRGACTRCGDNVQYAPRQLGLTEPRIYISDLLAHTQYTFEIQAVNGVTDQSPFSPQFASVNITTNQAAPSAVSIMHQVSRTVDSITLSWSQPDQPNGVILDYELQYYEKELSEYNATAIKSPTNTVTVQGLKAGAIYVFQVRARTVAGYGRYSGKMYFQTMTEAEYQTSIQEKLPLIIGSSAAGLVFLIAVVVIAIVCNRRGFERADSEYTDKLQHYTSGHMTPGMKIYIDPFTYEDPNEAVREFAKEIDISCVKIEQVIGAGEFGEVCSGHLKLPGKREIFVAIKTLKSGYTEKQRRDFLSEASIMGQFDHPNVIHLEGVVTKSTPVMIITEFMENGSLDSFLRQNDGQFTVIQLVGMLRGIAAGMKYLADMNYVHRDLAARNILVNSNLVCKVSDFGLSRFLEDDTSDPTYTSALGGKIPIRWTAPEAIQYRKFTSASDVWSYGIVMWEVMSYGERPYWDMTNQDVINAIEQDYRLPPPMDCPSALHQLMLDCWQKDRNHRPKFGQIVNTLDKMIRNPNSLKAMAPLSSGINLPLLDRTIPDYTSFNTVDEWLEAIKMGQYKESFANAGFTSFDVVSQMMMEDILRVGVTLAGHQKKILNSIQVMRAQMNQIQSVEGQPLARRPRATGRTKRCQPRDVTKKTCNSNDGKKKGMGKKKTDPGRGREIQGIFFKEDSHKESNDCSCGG
Chain of kinases in BCWM.1 cells (Homo sapiens, UniProt P28482) (P28482 2-360 limits assumed): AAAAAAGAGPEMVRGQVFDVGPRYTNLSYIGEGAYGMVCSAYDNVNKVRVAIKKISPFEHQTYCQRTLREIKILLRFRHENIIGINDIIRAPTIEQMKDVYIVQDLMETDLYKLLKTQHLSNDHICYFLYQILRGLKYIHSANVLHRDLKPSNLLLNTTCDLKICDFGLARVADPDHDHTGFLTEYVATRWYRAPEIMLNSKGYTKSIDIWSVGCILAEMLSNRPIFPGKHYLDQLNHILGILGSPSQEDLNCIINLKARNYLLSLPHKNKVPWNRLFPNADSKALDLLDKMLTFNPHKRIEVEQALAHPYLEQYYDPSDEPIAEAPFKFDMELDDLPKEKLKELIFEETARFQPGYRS
Chain of kinases in BCWM.1 cells (Homo sapiens, UniProt P41743) (P41743 2-596 limits assumed): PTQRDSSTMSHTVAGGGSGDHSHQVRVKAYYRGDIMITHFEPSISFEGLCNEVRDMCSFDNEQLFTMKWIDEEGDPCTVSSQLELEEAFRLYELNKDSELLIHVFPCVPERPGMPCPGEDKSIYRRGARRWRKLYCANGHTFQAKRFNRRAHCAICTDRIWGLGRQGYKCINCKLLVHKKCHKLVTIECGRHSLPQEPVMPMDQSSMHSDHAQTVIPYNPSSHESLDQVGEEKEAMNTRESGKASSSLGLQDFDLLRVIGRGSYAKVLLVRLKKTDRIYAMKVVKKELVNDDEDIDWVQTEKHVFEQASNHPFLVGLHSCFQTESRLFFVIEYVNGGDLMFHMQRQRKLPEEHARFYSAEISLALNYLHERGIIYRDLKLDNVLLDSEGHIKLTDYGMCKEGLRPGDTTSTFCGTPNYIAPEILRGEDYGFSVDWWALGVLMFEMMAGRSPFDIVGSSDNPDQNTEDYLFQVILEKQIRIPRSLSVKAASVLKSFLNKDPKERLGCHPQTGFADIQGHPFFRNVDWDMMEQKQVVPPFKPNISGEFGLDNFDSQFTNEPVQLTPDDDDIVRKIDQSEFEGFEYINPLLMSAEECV
Chain of kinases in BCWM.1 cells (Homo sapiens, UniProt O14976) (O14976 2-1311 limits assumed): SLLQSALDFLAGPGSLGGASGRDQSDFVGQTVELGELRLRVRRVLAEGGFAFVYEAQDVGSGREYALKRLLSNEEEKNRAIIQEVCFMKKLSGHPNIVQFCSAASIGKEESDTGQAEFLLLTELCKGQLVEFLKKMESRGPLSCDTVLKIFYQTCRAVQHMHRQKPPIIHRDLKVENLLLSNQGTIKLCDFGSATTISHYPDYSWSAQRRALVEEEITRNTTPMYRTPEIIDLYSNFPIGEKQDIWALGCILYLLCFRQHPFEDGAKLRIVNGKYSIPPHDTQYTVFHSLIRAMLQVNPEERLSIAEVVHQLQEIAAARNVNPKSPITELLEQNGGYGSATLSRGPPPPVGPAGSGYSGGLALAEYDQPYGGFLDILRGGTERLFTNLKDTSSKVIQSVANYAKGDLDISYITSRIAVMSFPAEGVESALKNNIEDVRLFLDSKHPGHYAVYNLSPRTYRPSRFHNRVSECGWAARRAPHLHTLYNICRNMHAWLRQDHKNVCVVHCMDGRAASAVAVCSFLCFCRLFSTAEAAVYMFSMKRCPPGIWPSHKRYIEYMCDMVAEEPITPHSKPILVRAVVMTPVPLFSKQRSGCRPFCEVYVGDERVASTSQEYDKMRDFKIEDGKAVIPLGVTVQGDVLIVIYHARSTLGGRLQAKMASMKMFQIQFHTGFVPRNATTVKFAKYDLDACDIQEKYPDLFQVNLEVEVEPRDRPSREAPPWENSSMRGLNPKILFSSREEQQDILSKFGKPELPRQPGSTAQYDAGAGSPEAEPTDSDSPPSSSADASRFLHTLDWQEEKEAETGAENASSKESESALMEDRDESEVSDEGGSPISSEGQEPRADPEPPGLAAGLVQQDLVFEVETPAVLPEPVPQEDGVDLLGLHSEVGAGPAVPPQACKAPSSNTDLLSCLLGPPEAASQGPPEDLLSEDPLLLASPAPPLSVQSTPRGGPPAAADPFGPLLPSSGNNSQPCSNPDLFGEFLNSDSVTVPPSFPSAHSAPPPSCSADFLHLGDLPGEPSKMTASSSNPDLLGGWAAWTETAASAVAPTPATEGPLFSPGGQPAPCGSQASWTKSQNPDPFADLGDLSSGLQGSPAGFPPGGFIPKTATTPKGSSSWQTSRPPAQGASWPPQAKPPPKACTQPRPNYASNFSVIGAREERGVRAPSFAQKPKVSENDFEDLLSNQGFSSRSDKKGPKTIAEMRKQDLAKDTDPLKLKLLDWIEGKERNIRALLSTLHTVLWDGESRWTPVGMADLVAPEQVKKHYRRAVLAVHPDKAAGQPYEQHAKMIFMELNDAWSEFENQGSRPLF

Structure (SMILES): CCC(=O)N1CC[C@H](Nc2nccc(Nc3ncc(C(=O)Nc4c(C)cccc4C)s3)n2)C1 [Example I-9]
- % change of MS signal compared to control sample (kinases in BCWM.1 cells [1]): 1% and 9%
- % change of MS signal compared to control sample (kinases in BCWM.1 cells [2]): −1.9% and −1.4%
- % change of MS signal compared to control sample (kinases in BCWM.1 cells [3]): 2.5%
- % change of MS signal compared to control sample (kinases in BCWM.1 cells [4]): −11.2% and −3.9%
- % change of MS signal compared to control sample (kinases in BCWM.1 cells [5]): −27% and −18.7%
- % change of MS signal compared to control sample (kinases in BCWM.1 cells [6]): −21.2% and −12.5%
- % change of MS signal compared to control sample (kinases in BCWM.1 cells [7]): −9.2%
- % change of MS signal compared to control sample (kinases in BCWM.1 cells [8]): −2.6% and −3.2%
- % change of MS signal compared to control sample (kinases in BCWM.1 cells [9]): −20.6% and −21.5%
- % change of MS signal compared to control sample (kinases in BCWM.1 cells [10]): 3.2% and 10.9%
- % change of MS signal compared to control sample (kinases in BCWM.1 cells [11]): −2.8% and 5.4%
- % change of MS signal compared to control sample (kinases in BCWM.1 cells [12]): 2.3% and 1.9%
- % change of MS signal compared to control sample (kinases in BCWM.1 cells [13]): 18.6%
- % change of MS signal compared to control sample (kinases in BCWM.1 cells [14]): 5.7% and 15.3%
- % change of MS signal compared to control sample (kinases in BCWM.1 cells [15]): 0.4% and −1.4%
- % change of MS signal compared to control sample (kinases in BCWM.1 cells [16]): 4.8%
- % change of MS signal compared to control sample (kinases in BCWM.1 cells [17]; JAK1, Protein Kinase Domain): −11.5% and −6.7%
- % change of MS signal compared to control sample (kinases in BCWM.1 cells [17]; JAK1 domain2, Activation Loop): −15.6% and −13.9%
- % change of MS signal compared to control sample (kinases in BCWM.1 cells [17]; JAK1 domain2, Lys1): −18.1% and −14.4%
- % change of MS signal compared to control sample (kinases in BCWM.1 cells [18]): −3.8% and 4%
- % change of MS signal compared to control sample (kinases in BCWM.1 cells [19]): −6.4% and −4.8%
- % change of MS signal compared to control sample (kinases in BCWM.1 cells [20]): 16.9% and 25.3%
- % change of MS signal compared to control sample (kinases in BCWM.1 cells [21]): 28.1% and 16.5%
- % change of MS signal compared to control sample (kinases in BCWM.1 cells [22]): 81.7% and 85.6%
- % change of MS signal compared to control sample (kinases in BCWM.1 cells [23]; ATP Loop): 0.4% and 1.8%
- % change of MS signal compared to control sample (kinases in BCWM.1 cells [23]; Lys1): 2.4% and 8%
- % change of MS signal compared to control sample (kinases in BCWM.1 cells [24]): 33.8%
- % change of MS signal compared to control sample (kinases in BCWM.1 cells [25]): −1.5% and −6.6%
- % change of MS signal compared to control sample (kinases in BCWM.1 cells [26]): −7.5% and −4.6%
- % change of MS signal compared to control sample (kinases in BCWM.1 cells [27]): −1.1% and 7.7%
- % change of MS signal compared to control sample (kinases in BCWM.1 cells [28]): −12.3% and −5.1%
- % change of MS signal compared to control sample (kinases in BCWM.1 cells [29]): −7%
- % change of MS signal compared to control sample (kinases in BCWM.1 cells [30]; Lys1): −1.9% and 1.2%
- % change of MS signal compared to control sample (kinases in BCWM.1 cells [30]; Protein Kinase Domain): 24.5% and 12.4%

— patent US10844077B2, “Thiazolyl-containing compounds for treating proliferative diseases” (Dana-Farber Cancer Institute, Inc., priority 2014, dated 2020)
